The text below walks through data of article PMC8791944, “GLUT3 inhibitor discovery through in silico ligand screening and in vivo validation in eukaryotic expression systems” (Scientific Reports, 2022).

Values joined by “and” are separate entries in the source; they are usually repeats but may differ in a detail not shown here. Equal values may be shown once. “Also recorded” adds a separate entry of the source.

For this test, the target named is T1, GLUT4 (Homo sapiens, UniProt P14672).
T1 construct: expressed in transfected cells; host or cells: Saccharomyces cerevisiae hxt0 strain SDY.022 (EBY.S7 Δerg4)
T1 sequence (P14672 1-509): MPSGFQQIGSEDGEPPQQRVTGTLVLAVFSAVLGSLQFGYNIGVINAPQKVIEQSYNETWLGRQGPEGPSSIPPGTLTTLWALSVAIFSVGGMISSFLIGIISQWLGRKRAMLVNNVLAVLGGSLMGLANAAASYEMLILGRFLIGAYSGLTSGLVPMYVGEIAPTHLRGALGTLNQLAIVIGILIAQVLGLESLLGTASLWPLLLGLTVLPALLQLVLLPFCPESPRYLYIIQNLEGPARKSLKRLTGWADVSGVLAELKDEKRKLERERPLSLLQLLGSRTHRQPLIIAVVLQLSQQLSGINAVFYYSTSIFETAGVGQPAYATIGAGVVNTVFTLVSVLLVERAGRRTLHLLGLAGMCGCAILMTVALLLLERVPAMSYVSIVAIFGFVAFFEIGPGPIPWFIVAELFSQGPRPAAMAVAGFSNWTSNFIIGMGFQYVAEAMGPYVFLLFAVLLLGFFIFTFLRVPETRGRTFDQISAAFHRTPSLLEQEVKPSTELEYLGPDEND
Kind of test: Glucose transport assay, GLUT4 expressed in hxt^0 yeast cells SDY.022. It is filed as cell-based. The settings on record: for IC50: hxt^0 yeast cells, 5 mM glucose, read-out: IC50 for GLUT4 transport inhibition; for Potency for GLUT4 relative to GLUT3 (higher for GLUT4): IC50 GLUT4 versus IC50 GLUT3. The source says:
The most studied GLUTs are Class 1 GLUTs (GLUT1-4) and a Class 2 GLUT, GLUT5 (a fructose-only transporter). GLUT3 sequence homology and identity is 79% and 64%, 71% and 52%, 74% and 57%, and 60% and 38% with GLUT1, GLUT2, GLUT4, and GLUT5, respectively. The hxt^0 yeast cell systems expressing functional GLUT1-4[65],[69] and GLUT5[66] allow us to determine the in vivo transport activity (substrate uptake by a GLUT into whole cells) for individual GLUTs and establish GLUT3 inhibitor selectivity for these transporters. The transport assay was performed as described for GLUT3, but at the substrate concentrations that correspond to the KM for each GLUT (i.e., 5 mM glucose for GLUT1 and GLUT4[65], 15 mM glucose for GLUT2∆loopS_Q455R[63], and 10 mM fructose for GLUT5S72Y[66]).
The transport activity was assayed as the substrate uptake in hexose transporter-deficient yeast cells expressing functional GLUT1[65], GLUT2[69], GLUT4[65], or GLUT5[66]. Substrate final concentration in the assay matched the corresponding substrate KM and was 5 mM glucose for GLUT1 and GLUT4, 15 mM glucose for GLUT2∆loopS_Q455R, and 10 mM fructose for GLUT5S72Y. Transport assay was initiated by the addition of C^14-labeled substrate and stopped after 10 min (see “Materials and methods” for details). […] Standard deviations for experimental points come from at least three independent measurements.
The plasmids containing functional constructs of GLUT1-5 were transformed in the corresponding hxt^0 strains[65],[66],[73] (EBY.VW4000 for GLUT5S72Y, EBY.S7 for GLUT1, GLUT2∆loopS_Q455R, GLUT3 and GLUT3S66Y, and SDY.022 for GLUT4) and grown on 2% (w/v) agar plates of the respective media supplemented with 1% (w/v) maltose. An initial culture of ~ 10 ml was started with a few colonies and grown for 2–3 days if the media was SC-uracil with 1% (w/v) maltose (GLUT1, GLUT3, GLUT4) or 1–2 days if the media was YEP with 1% (w/v) maltose and 100 µg/ml geneticin G418 (GLUT2∆loopS_Q455R and GLUT5S72Y). Cells were washed once in the corresponding media in which maltose was substituted with 0.1–2% hexose substrate for the expressing GLUT (i.e., SC-uracil, 2% (w/v) glucose for GLUT1; SC-uracil, 0.2% (w/v/) glucose for GLUT3 and GLUT4; YEP, 0.2% (w/v) glucose, 100 µg/ml geneticin G418 for GLUT2∆loopS_Q455R, and YEP, 2% (w/v) fructose for GLUT5 S72Y). Then, cells were transferred in the same media so that OD600nm ~ 0.5 and grown further for 1–2 days.
For transport activity assay, cells in the hexose media were centrifuged (1000×g, 5 min, room temperature), washed once with PBS buffer (10 mM Na2HPO4, 1.8 mM KH2PO4, 2.7 mM KCl, 137 mM NaCl, pH 7.4), and resuspended in PBS buffer at an OD600nm ~ 10; each assay contained 100 µl of this cell solution. Transport activity assay was started by adding C^14-hexose at a substrate concentration corresponding to the respective KM (5 mM glucose for GLUT1 or GLUT4, 3 mM glucose for GLUT3 or 1.5 mM glucose for GLUT3S66Y, 15 mM glucose for GLUT2∆loopS_Q455R, and 10 mM fructose for GLUT5S72Y); for determining the glucose KM in GLUT3 and GLUT3S66Y, substrate concentrations were varied accordingly. […] The filtration membranes were transferred into scintillation vials with 10 ml of Scintillation Solution (BioSafeII; Research Products International, Mount Prospect, IL, USA), and vortexed briefly. The radioactivity was determined with a scintillation counter (Tri-carb 2900TR, Perkin Elmer, USA).

For the compound `COc1ccccc1-n1c(/C=C/c2ccc(O)cc2)nc2ccc(Br)cc2c1=O` [G3iB, 6-bromo-2-[(E)-2-(4-hydroxyphenyl)ethenyl]-3-(2-methoxyphenyl)quinazolin-4(3H)-one], the concentration for half-maximal inhibition (IC50) was determined as 12.7 ± 2.3 µM.
Still for that read-out and setting: then `Cc1cccnc1OC1CCN(c2cc(N3CCCC3CO)ncn2)CC1` (stereo not shown) [G3iC], with 25.6 ± 6.6 µM.
For the compound `Cc1ccccc1CN(Cc1nnc(C(C)(C)C)o1)c1ccc2nc(O)[nH]c2c1` [G3iF], the “Potency for GLUT4 relative to GLUT3 (higher for GLUT4)” value is given as “~ fivefold” and the half-inhibitory concentration (IC50) is 6.94 ± 1.37 µM.
Consider `CC(=O)Nc1ccc(S(=O)(=O)Nc2ccc(Nc3cc(N(C)C)nc(C)n3)cc2)cc1` [G3iA, N-(4-{[(4-{[6-(dimethylamino)-2-methylpyrimidin-4-yl]amino}phenyl)amino]sulfonyl}phenyl)acetamide], for which the IC50 was > 50 µM.
The same measure, in the same setting: then `O=C(Nc1cccc(Cl)c1)c1cccc(NC(=O)c2cccc([N+](=O)[O-])c2)c1` [G3iE, N-{3-[(3-chloroanilino)carbonyl]phenyl}-3-nitrobenzamide], with 12.4 ± 2.5 µM.
For `Cc1cc(NC(=O)CCC2Cc3ccccc3NC2=O)nc(-c2ccccc2)n1` (stereo not shown) [G3iD], the “Potency for GLUT4 relative to GLUT3 (higher for GLUT4)” value was “~ fivefold” and the IC50 was 3.88 ± 0.57 µM. Moreover, the Ki (2.5, 5 and 10 mM glucose, 0, 4 and 8 µM G3iD, read-out: Ki for GLUT4 inhibition (Dixon plot)) is 2650 nM and ~2700 nM. Besides, the “Inhibition mode in GLUT4” value (Dixon plot, versus glucose) is listed as “competitive with glucose; also recorded: competitive inhibitor; also recorded: competitive inhibition mode”.
